Source: publication PMC5836741 (Journal of medicinal chemistry, 2017)

How the values were obtained:
M3R = M3R (Homo sapiens, UniProt P20309); assay: ERK1/2 phosphorylation; settings: CHO, read-out: ERK1/2 phosphorylation Emax M3R
hM3 mAChR = hM3 mAChR (Homo sapiens, UniProt P20309); assay: IP-One accumulation assay, CHO cells, M3R; assay type: cell-based; settings: read-out: IP accumulation Emax M3R
M2R [1] = biological target: T1, M2R (Homo sapiens, UniProt P08172); assay: β-Arrestin recruitment assay, HEK cells, M2-TEV-tTA; assay type: cell-based; settings: versus acetylcholine as reference, against the cAMP assay
T1 sequence (P08172 1-466): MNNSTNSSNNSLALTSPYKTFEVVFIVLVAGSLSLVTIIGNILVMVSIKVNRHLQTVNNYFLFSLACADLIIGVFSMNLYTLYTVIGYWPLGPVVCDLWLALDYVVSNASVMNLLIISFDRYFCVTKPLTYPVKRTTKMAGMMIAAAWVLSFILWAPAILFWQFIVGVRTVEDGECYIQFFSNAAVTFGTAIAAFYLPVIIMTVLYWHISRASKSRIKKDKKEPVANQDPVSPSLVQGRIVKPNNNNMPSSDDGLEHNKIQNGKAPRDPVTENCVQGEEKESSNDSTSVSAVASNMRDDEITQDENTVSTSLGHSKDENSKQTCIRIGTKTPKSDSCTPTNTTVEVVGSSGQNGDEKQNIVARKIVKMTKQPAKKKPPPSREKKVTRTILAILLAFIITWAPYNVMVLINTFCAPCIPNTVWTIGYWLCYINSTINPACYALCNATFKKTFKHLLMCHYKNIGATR

M2R [2] = biological target: T1, M2R; assay: Whole cell radioligand binding, CHO cells, M2R; settings: M2 vs M1

Chain of M3R (P20309 whole entry): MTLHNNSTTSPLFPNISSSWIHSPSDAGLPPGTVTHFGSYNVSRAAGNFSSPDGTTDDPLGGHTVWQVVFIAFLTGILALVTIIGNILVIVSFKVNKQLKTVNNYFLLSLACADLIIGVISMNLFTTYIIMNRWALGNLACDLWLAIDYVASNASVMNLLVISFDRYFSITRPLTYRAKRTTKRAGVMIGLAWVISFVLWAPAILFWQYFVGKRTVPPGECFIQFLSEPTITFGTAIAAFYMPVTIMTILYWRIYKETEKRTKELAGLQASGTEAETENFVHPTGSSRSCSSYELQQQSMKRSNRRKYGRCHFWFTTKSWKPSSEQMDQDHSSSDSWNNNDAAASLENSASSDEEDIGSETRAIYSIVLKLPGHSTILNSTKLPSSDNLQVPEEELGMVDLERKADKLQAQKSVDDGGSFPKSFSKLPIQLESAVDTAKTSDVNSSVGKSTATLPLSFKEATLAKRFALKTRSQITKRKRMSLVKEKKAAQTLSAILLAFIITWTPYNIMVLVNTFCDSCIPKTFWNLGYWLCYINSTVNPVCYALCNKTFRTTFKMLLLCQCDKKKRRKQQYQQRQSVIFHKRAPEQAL
Chain of hM3 mAChR (P20309 whole entry): as above

| Structure (SMILES) | Emax (M3R) [%] | Emax (hM3 mAChR) [%] | bias toward arrestin (M2R [1]) [fold] | selectivity over M1 receptor (M2R [2]) [fold] |
| --- | --- | --- | --- | --- |
| CC(=O)OCC[N+](C)(C)C [acetylcholine] | 100 | 100 | – | – |
| C[N+](C)(C)CCc1ccc2c(c1)OCC2.O=C[O-] [Compound 28] | – | – | 20 | 4 |
